Like-named read-outs stand apart in the source and are kept apart here.
What was measured:
Enkephalinase = target: T1, Enkephalinase (Rattus norvegicus, UniProt P07861); test: Enkephalinase inhibition, fluorometric assay with dansyl-D-AlaGly(p-nitro)PheGly substrate; type: biochemical; settings: 50 mM HEPES pH 7.4, 25° C.; for Ki: enzyme partially purified from rat kidney, 12 μM substrate
T1 construct: Enkephalinase is partially purified from rat kidney; from tissue; host or cells: rat kidney, microvilli fraction (Triton X-100 extract or proteolytic treatment, then Mono Q anion exchange)
T1 sequence (P07861 1-750): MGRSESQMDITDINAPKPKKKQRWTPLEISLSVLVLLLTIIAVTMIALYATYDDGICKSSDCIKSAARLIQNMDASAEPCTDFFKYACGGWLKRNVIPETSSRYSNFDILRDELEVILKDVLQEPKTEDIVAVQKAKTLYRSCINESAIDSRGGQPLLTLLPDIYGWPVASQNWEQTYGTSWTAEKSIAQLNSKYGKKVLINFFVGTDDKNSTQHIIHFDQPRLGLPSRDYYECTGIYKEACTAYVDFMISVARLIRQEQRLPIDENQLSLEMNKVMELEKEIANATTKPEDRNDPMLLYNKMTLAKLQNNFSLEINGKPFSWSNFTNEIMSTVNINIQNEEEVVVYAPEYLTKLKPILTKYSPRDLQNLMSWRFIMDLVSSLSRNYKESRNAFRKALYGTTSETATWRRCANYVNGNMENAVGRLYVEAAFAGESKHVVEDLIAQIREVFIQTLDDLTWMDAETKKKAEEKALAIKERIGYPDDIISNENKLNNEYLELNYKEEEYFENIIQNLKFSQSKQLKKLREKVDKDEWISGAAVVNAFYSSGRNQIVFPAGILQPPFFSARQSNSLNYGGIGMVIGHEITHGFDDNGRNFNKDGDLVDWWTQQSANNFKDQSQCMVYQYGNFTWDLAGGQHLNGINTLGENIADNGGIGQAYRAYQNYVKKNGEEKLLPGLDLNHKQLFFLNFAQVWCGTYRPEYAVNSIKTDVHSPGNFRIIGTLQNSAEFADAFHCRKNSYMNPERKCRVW
Source text: Enkephalinase is partially purified from rat kidney. The enzyme is extracted from the microvilli fraction by using Triton X-100 according to the method of Malfroy and Schwartz [J. Biol. Chem. 259, 14365-14370 (1984)] or by using a proteolytic treatment according to the method of Almenoff and Orlowski [Biochem. 22, 590-599 (1983)]. The enzyme is further purified by anion exchange chromatography (Mono QTM column, Pharmacia) using a Pharmacia FPLC system. The enzyme activity may be measured by the fluorometric methods of Florentin et al. [Anal. Biochem. 141, 62-69 (1984)] or of Almenoff and Orlowski [J. Neurochemistry 42, 151-157 (1984)]. […] The substrate (and inhibitor) is added from a concentrated stock solution in DMSO (up to […] DMSO final volume). The enzyme in a small volume (approximately 0.1 μg of FPLC purified protein) is added to initiate the reaction and the rate of fluorecense increase is recorded continuously using a fluorometer (excitation at 339 nm, emission at 562 nm).

[1] = system: specific binding sites in various tissues including kidney, adrenal, aorta, and vascular smooth muscle; settings: Needleman, Hypertension 7, 469 (1985), cited from earlier work

Row | Ki (Enkephalinase) [nM] | Compound | other results
1 | 0.6 | O=C(N[C@H]1CC[C@@H](C(=O)O)CC1)C1(CS)CCc2ccccc2C1 (relative stereo) [100,552, 4-[[[1,2,3,4-Tetrahydro-2-(mercarptomethyl)-2-naphthalenyl]carbonyl]amino]- cis-cyclohexanecarboxylic acid] | –
2 | ≤ 0.2 | O=C(O)CCNC(=O)C1(CS)CCc2ccccc2C1 (stereo not drawn) [100,185, N-[[1,2,3,4-Tetrahydro-2-(mercarptomethyl)-2-naphthalenyl]carbonyl]-β-alanine] | –
3 | 0.4 | O=C(O)CNC(=O)C1(CS)CCc2ccccc2C1 (centres unmarked) [100,250, N-[[1,2,3,4-Tetrahydro-2-(mercarptomethyl)-2-naphthalenyl]carbonyl]-glycine] | –

The remaining lines, values behind:

Row | Compound | Ki (Enkephalinase) [nM] | other results
4 | CC(C)[C@H](NC(=O)C1(CS)CCc2ccccc2C1)C(=O)O (stereo partly drawn) [101,782, N-[[1,2,3,4-Tetrahydro-2-(mercarptomethyl)-2-naphthalenyl]carbonyl]-L-valine] | 2 | –
5 | C[C@H](NC(=O)C1(CS)CCc2ccccc2C1)C(=O)O (stereo partly drawn) [101,890, N-[[1,2,3,4-Tetrahydro-2-(mercarptomethyl)-2-naphthalenyl]carbonyl]-L-alanine] | 0.3 | –
6 | ANP: family of naturally-occurring peptides which are involved in the homeostatic regulation of blood pressure, as well as sodium and water levels | – | Kd ([1]; affinities ranging from about, read-out: affinity (lower end of range)): ≥ 0.05 nM; Kd ([1]; affinities ranging to about, read-out: affinity (upper end of range)): ≤ 500 nM
7 | dansyl-D-AlaGly(p-nitro)PheGly [reference compound] | – | Km (Enkephalinase; substrate of the assay): 40 µM

From patent US5252601A, “2-mercaptomethylene-tetrahydronaphthalene and indane-2-carboxamide derivatives as enkephalinase inhibitors” (Merrell Dow Pharmaceuticals Inc., priority 1992, dated 1993)
